Among the data in US7476764B2, “Phenylcarboxyamides as beta-secretase inhibitors” (Bristol-Myers Squibb Company, priority 2005, dated 2009) are IC50 values, retold here.

Structures can show the parent of a compound that is named as a salt.

T1 sequence (P56817 46-501): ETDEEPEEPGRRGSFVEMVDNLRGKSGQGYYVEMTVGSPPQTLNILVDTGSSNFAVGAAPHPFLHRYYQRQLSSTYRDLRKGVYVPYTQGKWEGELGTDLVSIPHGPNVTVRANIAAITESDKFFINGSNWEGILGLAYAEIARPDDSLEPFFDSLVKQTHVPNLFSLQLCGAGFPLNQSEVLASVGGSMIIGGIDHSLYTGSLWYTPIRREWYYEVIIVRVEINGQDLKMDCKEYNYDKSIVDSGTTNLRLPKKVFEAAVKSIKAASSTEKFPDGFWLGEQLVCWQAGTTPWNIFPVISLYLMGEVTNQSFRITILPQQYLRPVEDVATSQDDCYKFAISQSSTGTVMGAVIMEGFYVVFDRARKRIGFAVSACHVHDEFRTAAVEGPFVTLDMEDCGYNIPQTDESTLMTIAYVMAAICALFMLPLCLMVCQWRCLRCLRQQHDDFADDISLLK

This experiment concerns the target T1, BACE1 enzyme (Homo sapiens, UniProt P56817).
T1 construct: The HEK293-9B.A1 cell line, which overexpresses the BACE1 enzyme, was derived from HEK293 cells; endogenous in cells; washed 48,000 x g pellet of the cell homogenate
The experiment can be described thus: Radioligand displacement assay with a radiolabeled BACE inhibitor on HEK293-9B.A1 cell homogenate. The experiment is classed as binding. To be noted: displacement of 1 nM tritiated radioligand, HEK293-9B.A1 homogenate, pH 5.0, 1.5 hr at 25° C.; read-out: Activity Rating (activity based on IC50 values). On the procedure: Radioligand displacement assays with a radiolabeled BACE inhibitor (WO 2004 013098, compound 3, where the methoxy group is substituted for C(^3H)3) were carried out using standard methods (Keen, M. (1999) in Receptor Binding Techniques (Walker, J. M. ed) p. 106 Humana Press, Totowa, N.J.). The HEK293-9B.A1 cell line, which overexpresses the BACE1 enzyme, was derived from HEK293 cells (Simmons, N. L. (1990) A cultured human renal epitheloid cell line responsive to vasoactive intestinal peptide. Exp. Physiol. 75:309-19.) by RAGE™ (Harrington, J. J. et al. (2001) Creation of genome-wide protein expression libraries using random activation of gene expression. Nat. Biotechnol. 19:440-5; U.S. Pat. Nos. 6,410,266 and 6,361,972). T225 flask cultures of HEK293-9B.A1 were grown to 80% confluency in DMEM supplemented with 2 mM L-glutamine, 10 μg/ml penicillin, 10 μg/ml streptomycin, 3 μg/ml puromycin, 100 nM methotrexate, and 10% fetal bovine serum (Invitrogen, Carlsbad, Calif.), harvested, and resuspended at 2×10^8 cells per 10 ml of lysis buffer consisting of 50 mM HEPES pH 7.0 containing a protease inhibitor cocktail of AEBSF 104 μM, aprotinin 80 nM, leupeptin 2 μM, bestatin 4 μM, pepstatin A 1.5 μM, and E-64 1.4 μM (0.1% of protease inhibitor cocktail P8340, Sigma-Aldrich, St. Louis, Mo.) at 4° C. The resuspended cells were homogenized using a Polytron (Brinkman, Westbury, N.Y.) at setting 6 for 10 sec., then centrifuged at 48,000×g for 10 min. The resulting pellet was washed by repeating the resuspension, homogenization and centrifugation steps. The final pellet was resuspended in buffer at 4° C. to yield a total protein concentration of 5 mg/ml, then aliquots were frozen in liquid nitrogen for further storage at −70° C. Immediately before carrying out a binding assay, an aliquot of cell homogenate was thawed and diluted to a concentration of 100 μg/ml in assay buffer consisting of 50 mM HEPES pH 5.0 and 0.1% CHAPSO. Assays were initiated in polypropylene 96-well plates (Costar, Cambridge, Mass.) by the addition of 200 μl of cell homogenate to 50 μl of assay buffer containing 1 nM radioligand (WO 2004 013098, compound 3, where the methoxy group is substituted for C(^3H)3: 80 Ci/mMol) and various concentrations of unlabelled compounds, and incubated for 1.5 hr. at 25° C. Separation of bound from free radioligand was by filtration on GFF glass fiber filters (Innotech Biosystems International, Lansing, Mich.) using an Innotech cell harvester.
Take `CCCN(CCC)C(=O)c1cc(C(C)=O)cc(C(=O)N[C@@H](Cc2cc(F)cc(F)c2)[C@H](O)CNCc2cccc(OC)c2)c1` [Example 1, N^1-((2S,3R)-4-(3-methoxybenzylamino)-1-(3,5-difluorophenyl)-3-hydroxybutan-2-yl)-5-acetyl-N^3,N^3-dipropylisophthalamide TFA salt]: the IC50 is below 100 nM.

On to `CCCN(CCC)C(=O)c1cc(C(=O)N[C@@H](Cc2cc(F)cc(F)c2)[C@H](O)CNCc2cccc(OC)c2)cc(C(C)O)c1` (stereo partly drawn) [Example 2, N^1-((2S,3R)-4-(3-methoxybenzylamino)-1-(3,5-difluorophenyl)-3-hydroxybutan-2-yl)-5-(1-hydroxyethyl)-N^3,N^3-dipropylisophthalamide TFA salt], for which the IC50 is below 100 nM. The value for `CCCN(CCC)C(=O)c1cc(C(=O)N[C@@H](Cc2cc(F)cc(F)c2)[C@H](O)CNCc2cccc(OC)c2)cc(/C(C)=N/OC)c1` [Example 3, N^1-((2S,3R)-4-(3-methoxybenzylamino)-1-(3,5-difluorophenyl)-3-hydroxybutan-2-yl)-5-((E)-1-(methoxyimino)ethyl)-N^3,N^3-dipropylisophthalamide TFA salt] was below 100 nM; that for `CCCN(CCC)C(=O)c1cc(C(=O)N[C@@H](Cc2cc(F)cc(F)c2)[C@H](O)CNCc2cccc(OC)c2)cc(/C(C)=N/OCc2ccccc2)c1` [Example 4, N^1-((2S,3R)-4-(3-methoxybenzylamino)-1-(3,5-difluorophenyl)-3-hydroxybutan-2-yl)-5-((E)-1-(benzyloxyimino)ethyl)-N^3,N^3-dipropylisophthalamide TFA salt] was below 100 nM; that for `CCCN(CCC)C(=O)c1cc(C(=O)N[C@@H](Cc2cc(F)cc(F)c2)[C@H](O)CNCc2cccc(OC)c2)cc(/C(C)=N/O)c1` [Example 5, N^1-((2S,3R)-4-(3-methoxybenzylamino)-1-(3,5-difluorophenyl)-3-hydroxybutan-2-yl)-5-((E)-1-(hydroxyimino)ethyl)-N^3,N^3-dipropylisophthalamide hydrochloride] was below 100 nM. In the case of `CCCN(CCC)C(=O)c1cc(C(=O)N[C@@H](Cc2cc(F)cc(F)c2)[C@H](O)CNCc2cccc(OC)c2)cc(/C(C)=N/OCC(C)C)c1` [Example 6, N^1-((2S,3R)-4-(3-methoxybenzylamino)-1-(3,5-difluorophenyl)-3-hydroxybutan-2-yl)-5-((E)-1-(isobutoxyimino)ethyl)-N^3,N^3-dipropylisophthalamide TFA salt] it was below 100 nM; in that of `C=CCO/N=C(\C)c1cc(C(=O)N[C@@H](Cc2cc(F)cc(F)c2)[C@H](O)CNCc2cccc(OC)c2)cc(C(=O)N(CCC)CCC)c1` [Example 7, N^1-((2S,3R)-4-(3-methoxybenzylamino)-1-(3,5-difluorophenyl)-3-hydroxybutan-2-yl)-5-((E)-1-(allyloxyimino)ethyl)-N^3,N^3-dipropylisophthalamide TFA salt], below 100 nM; in that of `CCCN(C)C(=O)c1cc(C(C)=O)cc(C(=O)N[C@@H](Cc2cc(F)cc(F)c2)[C@H](O)CNCc2cccc(OC)c2)c1` [Example 8, N^1-((2S,3R)-4-(3-methoxybenzylamino)-1-(3,5-difluorophenyl)-3-hydroxybutan-2-yl)-5-acetyl-N^3-methyl-N^3-propylisophthalamide TFA salt], below 100 nM. On to `CCCN(C)C(=O)c1cc(C(=O)N[C@@H](Cc2cc(F)cc(F)c2)[C@H](O)CNCc2cccc(OC)c2)cc(/C(C)=N/O)c1` [Example 9, N^1-((2S,3R)-4-(3-methoxybenzylamino)-1-(3,5-difluorophenyl)-3-hydroxybutan-2-yl)-5-((E)-1-(hydroxyimino)ethyl)-N^3-methyl-N^3-propylisophthalamide hydrochloride], for which the IC50 was below 100 nM. As for `CCCN(C)C(=O)c1cc(C(=O)N[C@@H](Cc2cc(F)cc(F)c2)[C@H](O)CNCc2cccc(OC)c2)cc(/C(C)=N/OC)c1` [Example 10, N^1-((2S,3R)-4-(3-methoxybenzylamino)-1-(3,5-difluorophenyl)-3-hydroxybutan-2-yl)-5-((E)-1-(methoxyimino)ethyl)-N^3-methyl-N^3-propylisophthalamide hydrochloride], the concentration for half-maximal inhibition (IC50) was below 100 nM. In the case of `CCCN(C)C(=O)c1cc(C(=O)N[C@@H](Cc2cc(F)cc(F)c2)[C@H](O)CNCc2cccc(OC)c2)cc(/C(C)=N/OCc2ccccc2)c1` [Example 11, N^1-((2S,3R)-4-(3-methoxybenzylamino)-1-(3,5-difluorophenyl)-3-hydroxybutan-2-yl)-5-((E)-1-(benzyloxyimino)ethyl)-N^3-methyl-N^3-propylisophthalamide hydrochloride] it was below 100 nM. In the case of `CCCN(C)C(=O)c1cc(C(=O)N[C@@H](Cc2cc(F)cc(F)c2)[C@H](O)CNCc2cccc(OC)c2)cc(/C(C)=N/OCC(C)C)c1` [Example 12, N^1-((2S,3R)-4-(3-methoxybenzylamino)-1-(3,5-difluorophenyl)-3-hydroxybutan-2-yl)-5-((E)-1-(isobutoxyimino)ethyl)-N^3-methyl-N^3-propylisophthalamide hydrochloride] it was below 100 nM; in that of `C=CCO/N=C(\C)c1cc(C(=O)N[C@@H](Cc2cc(F)cc(F)c2)[C@H](O)CNCc2cccc(OC)c2)cc(C(=O)N(C)CCC)c1` [Example 13, N^1-((2S,3R)-4-(3-methoxybenzylamino)-1-(3,5-difluorophenyl)-3-hydroxybutan-2-yl)-5-((E)-1-(allyloxyimino)ethyl)-N^3-methyl-N^3-propylisophthalamide hydrochloride], below 100 nM; in that of `CCCO/N=C(\C)c1cc(C(=O)N[C@@H](Cc2cc(F)cc(F)c2)[C@H](O)CNCc2cccc(OC)c2)cc(C(=O)N(C)CCC)c1` [Example 14, N^1-((2S,3R)-4-(3-methoxybenzylamino)-1-(3,5-difluorophenyl)-3-hydroxybutan-2-yl)-N^3-methyl-5-((E)-1-(propoxyimino)ethyl)-N^3-propylisophthalamide], below 100 nM. Regarding `CCCN(C)C(=O)c1cc(C(=O)N[C@@H](Cc2cc(F)cc(F)c2)[C@H](O)CNCc2cccc(OC)c2)cc(C(C)O)c1` (stereo partly drawn) [Example 15, hydrochloride], the IC50 was below 100 nM. For `COc1cccc(CNC[C@@H](O)[C@H](Cc2cc(F)cc(F)c2)NC(=O)c2cc(C(C)=O)cc(S(C)(=O)=O)c2)c1` [Example 16, N^1-((2S,3R)-4-(3-methoxybenzylamino)-1-(3,5-difluorophenyl)-3-hydroxybutan-2-yl)-3-acetyl-5-(methylsulfonyl)benzamide TFA salt], the IC50 was 100 to 1000 nM. With `CO/N=C(\C)c1cc(C(=O)N[C@@H](Cc2cc(F)cc(F)c2)[C@H](O)CNCc2cccc(OC)c2)cc(S(C)(=O)=O)c1` [Example 17, N-((2S,3R)-4-(3-methoxybenzylamino)-1-(3,5-difluorophenyl)-3-hydroxybutan-2-yl)-3-((E)-1-(methoxyimino)ethyl)-5-(methylsulfonyl)benzamide TFA salt], the IC50 fell in the range of 100 to 1000 nM. In the case of `COc1cccc(CNC[C@@H](O)[C@H](Cc2cc(F)cc(F)c2)NC(=O)c2cc(/C(C)=N/OCc3ccccc3)cc(S(C)(=O)=O)c2)c1` [Example 18, N-((2S,3R)-4-(3-methoxybenzylamino)-1-(3,5-difluorophenyl)-3-hydroxybutan-2-yl)-3-((E)-1-(benzyloxyimino)ethyl)-5-(methylsulfonyl)benzamide TFA salt], the IC50 is 100 to 1000 nM.
